Data published in patent EP4667483A1, “HUMAN TRANSFERRIN RECEPTOR-BINDING PEPTIDE” (JCR Pharmaceuticals Co., Ltd., priority 2023, dated 2024).
Numbered stars: 1 amine (or outer) side, 2 acyl side, 3 side chain; on linkers, the order of the positions; unused ones are H or OH. Bridge positions count the residues as written; N and C are the ends. Square brackets hold non-standard residues; d marks the D form. Side chains are listed from the residue outwards. Peptide text beside a SMILES is read from it. * marks the point of attachment. Trp(1-CH2COOH) = N[C@@H](Cc1cn(CC(=O)O)c2ccccc12)C(=O)O; NMePhe(4-COOH) = CN[C@@H](Cc1ccc(C(=O)O)cc1)C(=O)O; Nle(6-morpholino) = N[C@@H](CCCCN1CCOCC1)C(=O)O; Phe(3-COOH) = N[C@@H](Cc1cccc(C(=O)O)c1)C(=O)O; Trp(7-aza) = N[C@@H](Cc1c[nH]c2ncccc12)C(=O)O; NMePhe(3-Cl) = CN[C@@H](Cc1cccc(Cl)c1)C(=O)O; Piperazinyl(4-CH2COOH) = O=C(O)CN1CCN(*)CC1; 3Pal(6-NH2) = Nc1ccc(C[C@H](N)C(=O)O)cn1; NMeW = CN[C@@H](Cc1c[nH]c2ccccc12)C(=O)O; PEG8 = NCCOCCOCCOCCOCCOCCOCCOCCOCCC(=O)O; Lys(N3) = [N-]=[N+]=NCCCC[C@H](N)C(=O)O; NMe4Pal = CN[C@@H](Cc1ccncc1)C(=O)O; NMeY = CN[C@@H](Cc1ccc(O)cc1)C(=O)O; Nva(3-Et) = CCC(CC)[C@H](N)C(=O)O; NMeF = CN[C@@H](Cc1ccccc1)C(=O)O; 4Pal = N[C@@H](Cc1ccncc1)C(=O)O; PEG4 = NCCOCCOCCOCCOCCC(=O)O; Carboxymethyl = O=C(O)C*; CO = O=C([*:1])[*:2]

Legend:
[1] = target: T1, human transferrin receptor (hTfR) (Homo sapiens, UniProt P02786); test: SPR measurement under pH 7.4 conditions (Biacore T200, CM3 chip, hTfR captured by His Tag antibody); assay type: binding; conditions: read-out: hTfR SPR pH7.4 KD
[2] = target: T1, human transferrin receptor (hTfR); test: SPR measurement under pH 6.0 conditions (Biacore T200, NTA chip, immobilized hTfR); assay type: binding; conditions: read-out: hTfR SPR pH6.0 KD
[3] = SPR, pH 7.4, peptide with the linker named in the table
[4] = SPR, pH 6.0, peptide with the linker named in the table

T1 sequence (P02786 whole entry): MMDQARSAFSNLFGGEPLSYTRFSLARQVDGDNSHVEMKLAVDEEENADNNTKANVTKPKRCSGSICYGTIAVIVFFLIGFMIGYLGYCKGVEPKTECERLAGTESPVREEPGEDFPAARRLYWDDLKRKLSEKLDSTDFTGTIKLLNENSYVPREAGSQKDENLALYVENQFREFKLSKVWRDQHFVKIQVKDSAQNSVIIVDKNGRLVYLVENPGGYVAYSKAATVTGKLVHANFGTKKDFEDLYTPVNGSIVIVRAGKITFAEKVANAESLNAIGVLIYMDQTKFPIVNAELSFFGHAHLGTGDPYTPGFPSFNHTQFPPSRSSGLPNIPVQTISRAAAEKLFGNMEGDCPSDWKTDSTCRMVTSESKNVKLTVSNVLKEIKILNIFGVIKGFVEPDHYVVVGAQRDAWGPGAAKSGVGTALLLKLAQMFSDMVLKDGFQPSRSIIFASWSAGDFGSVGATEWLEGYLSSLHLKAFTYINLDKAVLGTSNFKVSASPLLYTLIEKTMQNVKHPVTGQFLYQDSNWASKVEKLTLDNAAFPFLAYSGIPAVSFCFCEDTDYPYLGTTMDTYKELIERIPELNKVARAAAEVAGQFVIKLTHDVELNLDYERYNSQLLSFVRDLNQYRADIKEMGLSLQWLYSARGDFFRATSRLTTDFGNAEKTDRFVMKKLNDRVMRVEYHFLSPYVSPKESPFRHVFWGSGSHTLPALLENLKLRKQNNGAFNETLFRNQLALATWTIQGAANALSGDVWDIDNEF

Structure (SMILES) | Kd [1, 3] [nM] | Kd [2, 4] [nM] | Kd ([1]; SPR, pH 7.4, Table 1-3-2-2) [nM] | Kd ([2]; SPR, pH 6.0, Table 1-3-2-2) [nM] | Kd ([1]; pH 7.4, single-cycle kinetics) [nM] | Kd ([2]; pH 6.0, single-cycle kinetics) [nM]
CC[C@H](C)[C@@H]1NC(=O)[C@H](Cc2ccc(OC)cc2)NC(=O)[C@H](Cc2ccc(O)cc2)NC(=O)[C@H](CC(N)=O)NC(=O)[C@H](Cc2c[nH]c3ncccc23)NC(=O)[C@H](C(C)C)NC(=O)[C@H](Cc2cccc(Cl)c2)N(C)C(=O)[C@H](C(C)C)NC(=O)[C@H](C)NC(=O)CSC[C@@H](C(=O)NCCOCCOCCOCCOCCC(N)=O)NC(=O)[C@H](Cc2ccc(O)cc2)N(C)C(=O)[C@H](Cc2cccc(C(=O)NCCOCCOCCOCCOCCOCCOCCOCCOCCC(=O)O)c2)NC(=O)[C@H](CCCNC(=N)N)NC(=O)[C@H](CCC(=O)NCCOCCOCCOCCOCCOCCOCCOCCOCCC(=O)O)NC(=O)[C@H]([C@@H](C)CC)NC1=O [compound 142] | 2.15 | 17.8 | – | – | – | –
CC[C@H](C)[C@@H]1NC(=O)[C@H](Cc2ccc(OC)cc2)NC(=O)[C@H](Cc2ccc(N)nc2)NC(=O)[C@H](CC(N)=O)NC(=O)[C@H](Cc2cnc3ccccn23)NC(=O)[C@H](C(C)C)NC(=O)[C@H](Cc2cccc(Cl)c2)N(C)C(=O)[C@H](C(C)C)NC(=O)[C@H](C)NC(=O)CSC[C@@H](C(=O)NCC(=O)N[C@H](CCC(=O)O)C(=O)N[C@H](CCC(=O)O)C(=O)N[C@H](CCC(=O)O)C(=O)N[C@H](CO)C(=O)N[C@H](CO)C(=O)N[C@@H](CCCCN=[N+]=[N-])C(N)=O)NC(=O)[C@H](Cc2ccc(O)cc2)N(C)C(=O)[C@H](Cc2ccncc2)NC(=O)[C@H](CCCNC(=N)N)NC(=O)[C@H](CCCNC(=N)N)NC(=O)[C@H]([C@@H](C)CC)NC1=O [compound 185] | – | – | 28.7 | 381 | – | –
CC[C@H](C)[C@@H]1NC(=O)[C@H](Cc2ccc(OCC(=O)O)cc2)NC(=O)[C@H](Cc2ccc(N)nc2)NC(=O)[C@H](CC(N)=O)NC(=O)[C@H](Cc2c[nH]c3ncccc23)NC(=O)[C@H](C(C)C)NC(=O)[C@H](Cc2cccc(Cl)c2)N(C)C(=O)[C@H](C(C)C)NC(=O)[C@H](C)NC(=O)CSC[C@@H](C(=O)NCCOCCOCCOCCOCCC(N)=O)NC(=O)[C@H](Cc2ccc(O)cc2)N(C)C(=O)[C@H](Cc2ccncc2)NC(=O)[C@H](CCCCNC(=O)N2CCN(CC(=O)O)CC2)NC(=O)[C@H](CCCCN2CCOCC2)NC(=O)[C@H]([C@@H](C)CC)NC1=O [compound 9] ({CH2CO}-AV[NMePhe(3-Cl)]V[Trp(7-aza)]N[3Pal(6-NH2)]Y(Carboxymethyl)II[Nle(6-morpholino)]K([CO-Piperazinyl(4-CH2COOH)])[4Pal][NMeY]C[PEG4]-NH2; thioether N-15) | – | – | – | – | 29.1 | 774
CCC(CC)[C@@H]1NC(=O)[C@H](Cc2ccc(O)cc2)NC(=O)[C@H](Cc2ccc(N)nc2)NC(=O)[C@H](CC(N)=O)NC(=O)[C@H](Cc2c[nH]c3ccccc23)N(C)C(=O)[C@H](C(C)C)NC(=O)[C@H](Cc2ccccc2)N(C)C(=O)[C@H](C(C)C)NC(=O)[C@H](C)NC(=O)CSC[C@@H](C(=O)NCC(=O)N[C@H](CCC(=O)O)C(=O)N[C@H](CCC(=O)O)C(=O)N[C@H](CCC(=O)O)C(=O)N[C@H](CO)C(=O)N[C@H](CO)C(=O)N[C@@H](CCCCN=[N+]=[N-])C(N)=O)NC(=O)[C@H](Cc2ccc(C(=O)O)cc2)N(C)C(=O)[C@H](Cc2ccc(O)cc2)NC(=O)[C@H](CCCNC(=N)N)NC(=O)[C@H](CCCCN)NC(=O)[C@H]([C@@H](C)CC)NC1=O [compound 188] ({CH2CO}-AV[NMeF]V[NMeW]N[3Pal(6-NH2)]Y[Nva(3-Et)]IKRY[NMePhe(4-COOH)]CG[dE][dE][dE][dS][dS][Lys(N3)]-NH2; thioether N-15) | – | – | 34 | 175 | – | –
CC[C@H](C)[C@@H]1NC(=O)[C@H](Cc2ccc(OCC(=O)O)cc2)NC(=O)[C@H](Cc2ccc(O)cc2)NC(=O)[C@H](CC(N)=O)NC(=O)[C@H](Cc2c[nH]c3ncccc23)NC(=O)[C@H](C(C)C)NC(=O)[C@H](Cc2cccc(Cl)c2)N(C)C(=O)[C@H](C(C)C)NC(=O)[C@H](C)NC(=O)CSC[C@@H](C(=O)NCCOCCOCCOCCOCCC(N)=O)NC(=O)[C@H](Cc2ccc(O)cc2)N(C)C(=O)[C@H](CCC(=O)NCCOCCOCCOCCOCCOCCOCCOCCOCCC(=O)O)NC(=O)[C@H](CCCNC(=N)N)NC(=O)[C@H](CCC(N)=O)NC(=O)[C@H]([C@@H](C)CC)NC1=O [compound 139] ({CH2CO}-AV[NMePhe(3-Cl)]V[Trp(7-aza)]NYY(Carboxymethyl)IIQRE(PEG8)[NMeY]C[PEG4]-NH2; thioether N-15) | 107 | 524 | – | – | – | –
CCC(CC)[C@@H]1NC(=O)[C@H](Cc2ccc(OCC(=O)O)cc2)NC(=O)[C@H](Cc2ccc(O)cc2)NC(=O)[C@H](CC(N)=O)NC(=O)[C@H](Cc2cn(CC(=O)O)c3ccccc23)NC(=O)[C@H](C(C)C)NC(=O)[C@H](Cc2cccc(Cl)c2)N(C)C(=O)[C@H](C(C)C)NC(=O)[C@H](C)NC(=O)CSC[C@@H](C(=O)NCCOCCOCCOCCOCCC(N)=O)NC(=O)[C@H](Cc2ccncc2)N(C)C(=O)[C@H](Cc2cccc(C(=O)O)c2)NC(=O)[C@H](CCCNC(=N)N)NC(=O)[C@H](CCC(N)=O)NC(=O)[C@H]([C@@H](C)CC)NC1=O [compound 96] ({CH2CO}-AV[NMePhe(3-Cl)]V[Trp(1-CH2COOH)]NYY(Carboxymethyl)[Nva(3-Et)]IQR[Phe(3-COOH)][NMe4Pal]C[PEG4]-NH2; thioether N-15) | 18.2 | 91.9 | – | – | – | –
CC[C@H](C)[C@@H]1NC(=O)[C@H](Cc2ccc(OCC(=O)O)cc2)NC(=O)[C@H](Cc2ccc(N)nc2)NC(=O)[C@H](CC(N)=O)NC(=O)[C@H](Cc2c[nH]c3ncccc23)NC(=O)[C@H](C(C)C)NC(=O)[C@H](Cc2cccc(Cl)c2)N(C)C(=O)[C@H](C(C)C)NC(=O)[C@H](C)NC(=O)CSC[C@@H](C(=O)NCCOCCOCCOCCOCCC(N)=O)NC(=O)[C@H](Cc2ccc(O)cc2)N(C)C(=O)[C@H](Cc2ccncc2)NC(=O)[C@H](CCCNC(=N)N)NC(=O)[C@H](CCCCNC(=O)N2CCN(CC(=O)O)CC2)NC(=O)[C@H]([C@@H](C)CC)NC1=O [compound 14] ({CH2CO}-AV[NMePhe(3-Cl)]V[Trp(7-aza)]N[3Pal(6-NH2)]Y(Carboxymethyl)IIK([CO-Piperazinyl(4-CH2COOH)])R[4Pal][NMeY]C[PEG4]-NH2; thioether N-15) | – | – | – | – | 30.8 | 108
CC[C@H](C)[C@@H]1NC(=O)[C@H](Cc2ccc(OCCNC(=O)N3CCN(CC(=O)O)CC3)cc2)NC(=O)[C@H](Cc2ccc(O)cc2)NC(=O)[C@H](CC(N)=O)NC(=O)[C@H](Cc2cn(CC(=O)O)c3ccccc23)NC(=O)[C@H](C(C)C)NC(=O)[C@H](Cc2cccc(Cl)c2)N(C)C(=O)[C@H](C(C)C)NC(=O)[C@H](C)NC(=O)CSC[C@@H](C(=O)NCCOCCOCCOCCOCCC(N)=O)NC(=O)[C@H](Cc2ccc(O)cc2)N(C)C(=O)[C@H](Cc2ccncc2)NC(=O)[C@H](CCCCN2CCOCC2)NC(=O)[C@H](CCC(=O)NCCOCCOCCOCCOCCOCCOCCOCCOC)NC(=O)[C@H]([C@@H](C)CC)NC1=O [compound 41] | – | – | – | – | 14.5 | 91.4
CC[C@H](C)[C@@H]1NC(=O)[C@H](Cc2ccc(O)cc2)NC(=O)[C@H](Cc2ccc(N)nc2)NC(=O)[C@H](CC(N)=O)NC(=O)[C@H](Cc2c[nH]c3ccccc23)N(C)C(=O)[C@H](C(C)C)NC(=O)[C@H](Cc2ccccc2)N(C)C(=O)[C@H](C(C)C)NC(=O)[C@H](C)NC(=O)CSC[C@@H](C(=O)NCC(=O)N[C@@H](CCCCN=[N+]=[N-])C(N)=O)NC(=O)[C@H](Cc2ccc(C(=O)O)cc2)N(C)C(=O)[C@H](Cc2ccc(O)cc2)NC(=O)[C@H](CCCNC(=N)N)NC(=O)[C@H](CCCCN)NC(=O)[C@H]([C@@H](C)CC)NC1=O [compound 196] ({CH2CO}-AV[NMeF]V[NMeW]N[3Pal(6-NH2)]YIIKRY[NMePhe(4-COOH)]CG[Lys(N3)]-NH2; thioether N-15) | – | – | 2.94 | 13.9 | – | –
